Source: patent US6632921B1, “Seryl-lysyl-based peptide and peptidomimetic inhibitors of N-myristoyl transferase as anti-infective agents” (G. D Searle & Co, priority 1995, dated 2003)
≈ marks a conversion by molar mass, not a printed value. Read-outs that look alike come from different tables or passages of the source. Non-standard residues stand in square brackets, D forms with d. Residues, ends and D or L forms follow the SMILES beside them. Cha = N[C@@H](CC1CCCCC1)C(=O)O; Aun = NCCCCCCCCCCC(=O)O

How the values were obtained:
[1] = test system: Candida albicans, strain B311; assay: Antifungal susceptibility testing, microdilution broth, pH 5.4/30° C./YNB; type: cell-based
Experimental: Antifungal Screens were set up initially against Candida albicans, strain B311, and Cryotococcus neoformans, strain L210425. Both pathogens, (originally from the stock culture collection, Medical mycology research center, Washington university-Barnes hospital), were obtained from Dr.Kobayashi, Prof.of infectious diseases, Washington University, St.Louis, Mo.
All cultures are maintained at 30° C. on Sabouraud's dextrose agar slants and subcultured at monthly intervals to fresh medium. All inocula for susceptibility testing are prepared in yeast nitogen base(YNB, Difco) broth.
A loopful of growth from Sabouraud dextrose agar slant is inoculated into 4 ml of YNB broth media and incubated at 30° C. overnight (18-24 hrs) with constant agitation (Gyratory Shaker, New Brunswick Scientific). Prior to setting up susceptibility testing, the organisms are counted in a hemocytometer, and diluted as needed into assay media.
1) (Assay at DH 5.4/30° C. Incubation/YNB Media).
Antifungal assays were carried out initially by a modification of the method published by Jones, et. al; (1), and communicated to Searle by Dr. Kobayashi, Washington University. [R. N. Jones et al, Manual of Clinical Microbiology, 4th ed., (1985)]
The antifungal susceptibility testing consists of a microdilution broth procedure performed in 96 well microtiter plates (Costar, cat#3799). Briefly, test compounds from a 20 mM stock solution in DMSO are diluted into sterile, deionized water (final DMSO concentration not exceeding 1%), to yield 2× the desired concentration (100 uM, 10 uM and 1 uM for an initial screen, or a selected concentration range in serial 2 fold dilutions for EC50 determination). One hundred microliters (100 ul) of each concentration is dispensed into triplicate wells of a 96 well microtiter plate. Appropriate dilutions of a suspension of C.albicans (1×10^6 cells/ml) in 2× YNB is distributed into each of the wells, including growth control wells containing no test compound as well as control wells with 0.5% DMSO. Amphotericin B at 0.05, 1 and 5 ug/ml is included in each assay plate as a positive control. The plates are incubated at 30° C. and cell growth is scored by reading the absorbance at 590 nm on an Elisa plate reader(Dynatech, MR.5000).

Candida albicans NMT = biological target: T1, Candida albicans NMT (Candida albicans, UniProt P30418); assay: NMT enzyme inhibition assay (radiochemical HPLC end-point), Candida NMT; type: biochemical; conditions: for IC50: Table V, read-out: IC50 caNMT
T1 construct: made in house; host or cells: E. coli
T1 sequence (P30418 1-451): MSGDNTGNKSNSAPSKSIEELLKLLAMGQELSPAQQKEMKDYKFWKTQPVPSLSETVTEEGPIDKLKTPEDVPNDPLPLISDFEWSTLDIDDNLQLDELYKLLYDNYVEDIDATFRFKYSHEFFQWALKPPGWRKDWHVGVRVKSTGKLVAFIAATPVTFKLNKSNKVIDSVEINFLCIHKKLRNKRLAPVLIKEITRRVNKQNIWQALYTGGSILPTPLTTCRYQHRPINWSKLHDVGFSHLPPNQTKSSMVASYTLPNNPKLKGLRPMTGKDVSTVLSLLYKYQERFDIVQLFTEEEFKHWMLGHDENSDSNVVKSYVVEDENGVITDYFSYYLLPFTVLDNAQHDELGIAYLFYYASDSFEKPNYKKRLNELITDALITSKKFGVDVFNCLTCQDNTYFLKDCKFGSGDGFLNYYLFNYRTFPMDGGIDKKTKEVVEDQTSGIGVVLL
Experimental: Recombinant Candida albicans and human NMTs were expressed and purified from E. coli using previously described protocols. [D. A. Towler et al, Proc. Natl. Acad. Sci. USA, 84, 2707-2712 (1987); R. C. Weigand et al, J. Biol. Chem., 267, 8591-8598 (1992); R. J. Duronio et al, Proc. Natl. Acad. Sci. USA, 89, 4129-4133 (1992)] The ability of compounds to inhibit Candida NMT enzymatic activity was assessed using a radiochemical HPLC end-point assay as described previously for Saccharomyces cerevisiae and human NMTs. [D. Towler et al, Proc. Natl. Acad. Sci. USA, 83, 2812-2816 (1986); W. J. Rocque et al, J. Biol. Chem., 268, 9964-9971 (1991)] The donor substrate [^3H]myristoyl-coenzyme A was enzymatically synthesized from [^3H]myristic acid (50 Ci/mmol, Amersham, Arlington Heights, Ill.) and coenzyme A (Fluka Chemical Corp., Ronkonkoma, N.Y.), and purified as described previously. [W. J. Rocque et al, J. Biol. Chem., 268, 9964-9971 (1991)] The peptide acceptor substrate GNAASARR-NH2 was prepared by solid-phase peptide synthesis using the t-Boc amino acid methodology, followed by HF treatment and reverse-phase HPLC purification. Inhibitor stock solutions were prepared at 22 mM in DMSO; the final concentration of DMSO in each assay was 0.5% (v/v). Inhibition assays were carried out by combining variable amounts of inhibitor or buffer with […] of [^3H]myristoyl-coenzyme A (1 μCi, 9.09 Ci/mmol) and 2.2 nmoles of GNAASARR-NH2 in a total volume of 60 μL of 0.2 M N-[2-hydroxy-ethyl]piperazine-N′-[2-ethanesulfonic acid], pH 7.4, 2 mM DL-dithiothreitol, 0.2 mM ethylene glycol-bis-(β-aminoethyl ether) N,N,N′,N′-tetraacetic acid, and initiating the reaction by the addition of 50 μL of a Candida NMT solution (7-12 ng/50 μL). Assays with human NMT were identical except that they used 60-75 ng/50 μL of enzyme solution and 0.22 nmoles of GNAASARR-NH2. The reaction was quenched after 10 minutes at 24° C. by the addition of ice-cold MeOH, and the reaction products were separated and measured using C4 reverse-phase HPLC (Vydac 214TP10415; Separations Group, Hesperia, Calif.) and in-line scintillation counting using a Radiomatic A250 (Packard Instruments, Downers Grove, Ill.) and Ecolite(+) (ICN Biomedical, Costa Mesa, Calif.) as the scintillant. Selectivity was determined by calculating the ratio of the IC50 against human NMT to the IC50 against C. albicans NMT.

C. albicans 516 = assay: Antifungal susceptibility testing, pH 7.0/35° C., 1x10^3 cells/mL; type: cell-based, Candida albicans; conditions: Candida albicans, 516; pH 7.0/35° C./1x10^3 cells/mL, 48 hrs; read-out: EC50 - 48 HRS C.albicans (516)
Experimental: (§1) 2) Assay at pH 7.0/35° C. Incubation/(Candida Strains Only).
(§2) Based on several papers published during 1990-1993 regarding the standardization of testing procedures at multiple research centers, and the finding that, inoculum size, pH of media, and the temperature of incubation drastically affect the antifungal activity of several compounds, particularly in the Azole class of antifungals, an additional assay was configured at pH 7.0 for Candida albicans. [M. A. Pfaller et al, Antimicrobial Agents and Chemotherapy, 34, 1648-1654 (1990); F. C. Odds et al, Antimicrobial Agents and Chemotherapy, 36, 1727-1737 (1992); R. A. Cook et al, Antimicrobial Agents and Chemotherapy, 34, 1542-1545 (1990)]
(§3) The assay format is identical to the first one with the following modifications: C.albicans cells are diluted to 1×10^3 cells/ml into 2× buffered YNB (YNB buffered with 1.65 mM MOPS, pH 7.0, with the addition of 2% Dextrose and 0.08% casamino acids mixture, bio 101. inc,cat #10420-100). Incubation is carried out at 35° C. instead of 30° C., and cell growth is monitored at 590 nm at 24 and 48 hrs as described. All other aspects of the assay are identical. This assay was validated with amphotericin B, fluconazole, cilofungin (Ly-121019), Nikkomycin and terbinafine using the following Candida strains- (C.albicans, B311, C.parasilosis, C.tropicalis, C.lusitaniae, C.glabrata, and C. albicans 516)-Table II. All strains were from Dr. Kobayashi, Washington university.

C.parasilosis = assay: as above; type: cell-based; conditions: pH 7.0/35° C./1x10^3 cells/mL, 48 hrs; read-out: EC50 - 48 HRS C.para
Experimental: as §1, §2, §3

C.glabrata = assay: as above; type: cell-based; conditions: Nakaseomyces glabratus; pH 7.0/35° C./1x10^3 cells/mL, 48 hrs; read-out: EC50 - 48 HRS C.glab.
Experimental: as §1, §2, §3

C.tropicalis = assay: as above; type: cell-based; conditions: Candida tropicalis; pH 7.0/35° C./1x10^3 cells/mL, 48 hrs; read-out: EC50 - 48 HRS C.trop.
Experimental: as §1, §2, §3

C.albicans, B311 = assay: as above; type: cell-based; conditions: Candida albicans, B311; pH 7.0/35° C./1x10^3 cells/mL, 48 hrs; read-out: EC50 - 48 HRS C.albicans
Experimental: as §1, §2, §3

C.lusitaniae = assay: as above; type: cell-based; conditions: Clavispora lusitaniae; pH 7.0/35° C./1x10^3 cells/mL, 48 hrs; read-out: EC50 - 48 HRS C.lusi.
Experimental: as §1, §2, §3

[2] = B311, 24 hours, Table V (values agree with pH 5.4 assay), read-out: caEC50 24 hours
[3] = B311, 24 h, pH 5.4, read-out: caEC50 24 hours
[4] = read-out: % inhibition of caNMT

| EC50 [1, 2] | SMILES | IC50 (Candida albicans NMT) | EC50 [1, 3] | inhibition at 10 µM (Candida albicans NMT; [4]) | other results |
| --- | --- | --- | --- | --- | --- |
| > 100 µM | Cc1nccn1CCCCc1ccc(CC(=O)N[C@@H](CO)C(=O)N[C@@H](CCCCN)C(=O)NC(CC(=O)O)C2CCCCC2)cc1 (mixture of isomers) [Example 9, Lysinamide, N-[1-Cyclohexyl-2-carboxyethyl]-N^2-[N-[[4-[4-(2-methyl-1H-imidazol-1-yl)butyl]phenyl]acetyl]-L-seryl]-, ±, bis-trifluoroacetate] | 6 µM | – | – | – |
| > 100 µM | Cc1nccn1CCCCc1ccc(CC(=O)N[C@@H](CO)C(=O)N[C@@H](CCCCN)C(=O)NC(CC(=O)O)C2CCCCCCC2)cc1 (mixture of isomers) [Example 10, Lysinamide, N-[1-Cyclooctyl-2-carboxyethyl]-N^2-[N-[[4-[4-(2-methyl-1H-imidazol-1-yl)butyl]phenyl]acetyl]-L-seryl]-, ±, bis-trifluoroacetate] | – | – | – | inhibition at 10 µM (Candida albicans NMT; @ 10 μM, read-out: % inhibition of caNMT): 40% |
| – | C[C@@H]1[C@H](O)[C@@H](C)/C=C/C=C/C=C/C=C/C=C/C=C/C=C/[C@H](O[C@@H]2O[C@H](C)[C@@H](O)[C@H](N)[C@@H]2O)C[C@@H]2O[C@](O)(C[C@@H](O)C[C@@H](O)[C@H](O)CC[C@@H](O)C[C@@H](O)CC(=O)O[C@H]1C)C[C@H](O)[C@H]2C(=O)O [Amphotericin, amphotericin B] | – | – | – | EC50 (C. albicans 516): 0.14 µg/mL (≈ 0.152 µM); EC50 (C.parasilosis): 0.31 µg/mL (≈ 0.335 µM); EC50 (C.glabrata): 0.47 µg/mL (≈ 0.509 µM); EC50 (C.tropicalis): 0.44 µg/mL (≈ 0.476 µM); EC50 (C.albicans, B311): 0.11 µg/mL (≈ 0.119 µM); EC50 (C.lusitaniae): 0.42 µg/mL (≈ 0.455 µM) |
| – | NCCCCCCCCCCC(=O)N[C@@H](CO)C(=O)N[C@@H](CCCCN)C(=O)N[C@@H](CC1CCCCC1)C(=O)O [Example 3, L-Alanine, 3-cyclohexyl-N-[[(11-amino-undecanoyl)-L-seryl]-L-lysyl]-, bis-trifluoroacetate] (H-[Aun]SK[Cha]-OH) | – | 33 µM | – | inhibition at 11 µM (Candida albicans NMT; [4]): 80% |
| – | CC(C)C[C@H](NC(=O)[C@H](CCCCN)NC(=O)[C@H](CO)NC(=O)CCCCCCCCCCN)C(=O)O [Example 4, L-leucine, N-[[(11-amino-undecanoyl)-L-seryl]-L-lysyl]-, bis-trifluoroacetate] (H-[Aun]SKL-OH) | 6.7 µM | 63 µM | – | – |
| – | Cc1nccn1CCCCc1ccc(CC(=O)N[C@@H](CO)C(=O)N[C@@H](CCCCN)C(=O)N[C@@H](C)C(=O)O)cc1 [Example 5, L-alanine, N-[N^2-[N-[[4-[4-(2-methyl-1H-imidazol-1-yl)butyl]phenyl]acetyl]-L-seryl]-L-lysyl]-, bis-trifluoroacetate] | – | 68 µM | 27% | – |
| – | Cc1nccn1CCCCc1ccc(CC(=O)N[C@@H](CO)C(=O)N[C@@H](CCCCN)C(=O)N[C@@H](Cc2ccccc2)C(=O)O)cc1 [Example 6, L-Alanine, 3-phenyl-N-[N^2-[N-[[4-[4-(2-methyl-1H-imidazol-1-yl)butyl]phenyl]acetyl]-L-seryl]-L-lysyl]-, bis-trifluoroacetate] | – | 80 µM | 36% | – |
| 97 µM | CC[C@H](C)[C@H](NC(=O)[C@H](CCCCN)NC(=O)[C@H](CO)NC(=O)Cc1ccc(CCCCn2ccnc2C)cc1)C(=O)O [Example 7, L-iso-leucine, N-[N^2-[N-[[4-[4-(2-methyl-1H-imidazol-1-yl)butyl]phenyl]acetyl]-L-seryl]-L-lysyl]-, bis-trifluoroacetate] | 100 µM | – | – | – |
| – | Cc1nccn1CCCCc1ccc(CC(=O)N[C@@H](CO)C(=O)N[C@@H](CCCCN)C(=O)N[C@@H](CC(C)C)C(=O)O)cc1 [Example 8, L-Leucine, N-[N^2-[N-[[4-[4-(2-Methyl-1H-imidazol-1-yl)butyl]phenyl]acetyl]-L-seryl]-L-lysyl]-, bis-trifluoroacetate] | – | > 100 µM | 78% | – |
| – | Cc1nccn1CCCCc1ccc(CC(=O)N[C@@H](CO)C(=O)N[C@@H](CCCCN)C(=O)N[C@H](CC2CCCCC2)C(=O)O)cc1 [Example 11, D-alanine, 3-cyclohexyl-N-[N^2-[N-[[4-[4-(2-methyl-1H-imidazol-1-yl)butyl]phenyl]acetyl]-L-seryl]-L-lysyl]-, bis-trifluoroacetate] | 18 µM | > 100 µM | – | – |
